Data: US11427548B2 (Arvinas Operations, Inc., priority 2015, dated 2022)
Where two headings read alike, the source gives them in different places.

Molecular target: T1, Androgen Receptor (Homo sapiens, UniProt P10275)
T1 construct: endogenous in cells; host or cells: VCaP cells
T1 sequence (P10275 1-920): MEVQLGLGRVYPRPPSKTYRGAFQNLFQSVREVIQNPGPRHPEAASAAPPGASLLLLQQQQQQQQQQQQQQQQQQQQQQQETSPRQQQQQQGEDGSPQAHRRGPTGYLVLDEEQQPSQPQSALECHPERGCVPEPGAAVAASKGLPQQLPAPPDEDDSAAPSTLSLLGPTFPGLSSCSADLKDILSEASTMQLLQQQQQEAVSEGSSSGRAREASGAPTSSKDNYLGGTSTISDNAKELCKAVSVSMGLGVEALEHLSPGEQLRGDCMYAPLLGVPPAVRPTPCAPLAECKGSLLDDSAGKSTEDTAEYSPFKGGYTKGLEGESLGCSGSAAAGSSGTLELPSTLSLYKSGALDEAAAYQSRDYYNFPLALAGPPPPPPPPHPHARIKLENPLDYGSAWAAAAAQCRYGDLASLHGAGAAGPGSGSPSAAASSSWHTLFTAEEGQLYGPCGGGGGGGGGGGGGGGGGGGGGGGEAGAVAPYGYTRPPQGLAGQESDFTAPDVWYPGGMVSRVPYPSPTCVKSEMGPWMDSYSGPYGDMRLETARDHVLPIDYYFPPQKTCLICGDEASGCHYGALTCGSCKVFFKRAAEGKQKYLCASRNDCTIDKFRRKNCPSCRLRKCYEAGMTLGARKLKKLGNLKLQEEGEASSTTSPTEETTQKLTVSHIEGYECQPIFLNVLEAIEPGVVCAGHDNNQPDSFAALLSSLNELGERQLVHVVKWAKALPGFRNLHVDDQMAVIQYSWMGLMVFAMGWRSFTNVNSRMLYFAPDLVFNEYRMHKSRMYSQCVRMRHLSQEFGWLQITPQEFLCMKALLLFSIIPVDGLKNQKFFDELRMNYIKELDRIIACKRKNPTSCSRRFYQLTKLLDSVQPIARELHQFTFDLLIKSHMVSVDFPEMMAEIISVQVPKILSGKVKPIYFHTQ
Experiment: Androgen Receptor ELISA assay (PathScan AR ELISA) in VCaP cells: AR degradation, Dmax and DC50
Type: cell-based
Conditions: Table 35; for DC50: read-out: VCaP DC50; for Dmax: VCaP
How it was run: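 VCaP cells in phenol red-free RPMI with 5% charcoal-stripped FBS were grown at least 3 days, then given compound as 7 half-log doses in 0.1% DMSO with 0.1 nM R1881 for 24 h. Lysates went into a sandwich AR ELISA with TMB read at 450 nm.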

[1] = VCaP cells, read-out: VCaP Dmax (%)

DC50 (VCaP cells) [nM] | Dmax [1] [%] | Dmax (read-out: VCaP Dmax (%), VCaP cells) [%] | SMILES
< 50 | 51 to 70 |  | CC(C)(C)[C@H](NC(=O)COCCCCCNc1ccc(C(=O)N[C@H]2C(C)(C)[C@H](Oc3ccc(C#N)c(Cl)c3)C2(C)C)cc1)C(=O)N1C[C@H](O)C[C@H]1C(=O)NCc1ccc(-n2ncnn2)cc1 [Example 506]
< 50 | 26 to 50 |  | CNC(=O)[C@@H]1C[C@@H](O)CN1C(=O)[C@@H](NC(=O)COCCCCCOc1ccc(C(=O)N[C@H]2C(C)(C)[C@H](Oc3ccc(C#N)c(Cl)c3)C2(C)C)cc1)C(C)(C)C [Example 507]
< 50 | > 71 |  | CNCC(NC(=O)[C@@H]1C[C@@H](O)CN1C(=O)[C@@H](NC(=O)COCCCCCOc1ccc(C(=O)N[C@H]2C(C)(C)[C@H](Oc3ccc(C#N)c(Cl)c3)C2(C)C)cc1)C(C)(C)C)c1ccc(-c2scnc2C)cc1 (stereo partly drawn) [Example 508]
51 to 500 | 26 to 50 |  | CC(C)(C)[C@H](NC(=O)COCCCCCOc1ccc(C(=O)N[C@H]2C(C)(C)[C@H](Oc3ccc(C#N)c(Cl)c3)C2(C)C)cc1)C(=O)N1C[C@H](O)C[C@H]1C(=O)O [Example 509]
< 50 | 51 to 70 |  | COc1cc(C#N)ccc1CNC(=O)[C@@H]1C[C@@H](O)CN1C(=O)[C@@H](NC(=O)COCCCCCNc1ccc(C(=O)N[C@H]2C(C)(C)[C@H](Oc3ccc(C#N)c(Cl)c3)C2(C)C)cc1)C(C)(C)C [Example 510]
< 50 | 51 to 70 |  | CNC(=O)c1ccc(CNC(=O)[C@@H]2C[C@@H](O)CN2C(=O)[C@@H](NC(=O)COCCCCCNc2ccc(C(=O)N[C@H]3C(C)(C)[C@H](Oc4ccc(C#N)c(Cl)c4)C3(C)C)cc2)C(C)(C)C)cc1 [Example 511]
51 to 500 | 51 to 70 |  | CC(C)(C)[C@H](NC(=O)COCCCCCNc1ccc(C(=O)N[C@H]2C(C)(C)[C@H](Oc3ccc(C#N)c(Cl)c3)C2(C)C)cc1)C(=O)N1C[C@H](O)C[C@H]1C(=O)NCc1ccc(C(=O)O)cc1 [Example 512]
< 50 | > 71 |  | Cc1ncsc1-c1ccc(CNC(=O)[C@@H]2C[C@@H](O)CN2C(=O)[C@@H](NC(=O)COCCNc2ccc(-c3c(F)cc(C(=O)N[C@H]4C(C)(C)[C@H](Oc5ccc(C#N)c(Cl)c5)C4(C)C)cc3F)cn2)C(C)(C)C)cc1 [Example 513]
> 501 | 26 to 50 |  | CNC[C@@H](NC(=O)[C@@H]1C[C@@H](O)CN1C(=O)[C@@H](NC(=O)COCCCCCOc1ccc(C(=O)N[C@H]2C(C)(C)[C@H](Oc3ccc(C#N)c(Cl)c3)C2(C)C)cc1)C(C)(C)C)c1ccc(-c2scnc2C)cc1 [Example 514]
< 50 | > 71 |  | CNC[C@H](NC(=O)[C@@H]1C[C@@H](O)CN1C(=O)[C@@H](NC(=O)COCCCCCOc1ccc(C(=O)N[C@H]2C(C)(C)[C@H](Oc3ccc(C#N)c(Cl)c3)C2(C)C)cc1)C(C)(C)C)c1ccc(-c2scnc2C)cc1 [Example 515]
< 50 | > 71 |  | Cc1ncsc1-c1ccc(CNC(=O)[C@@H]2C[C@@H](O)CN2C(=O)[C@@H](NC(=O)COCCCCCNc2ccc(C(=O)N[C@H]3C(C)(C)[C@H](Oc4ccc(C#N)c(Cl)c4)C3(C)C)cc2)C(C)(C)C)cn1 [Example 516]
< 50 | > 71 |  | C[C@H](NC(=O)[C@@H]1C[C@@H](O)CN1C(=O)[C@@H](NC(=O)COCCCCCNc1ccc(C(=O)N[C@H]2C(C)(C)[C@H](Oc3ccc(C#N)c(Cl)c3)C2(C)C)cc1)C(C)(C)C)c1ccc(-c2c[nH]nn2)cc1 [Example 517]
> 501 |  | < 25 | CC(C)(C)[C@H](NC(=O)COCCCCCNc1ccc(C(=O)N[C@H]2C(C)(C)[C@H](Oc3ccc(C#N)c(Cl)c3)C2(C)C)cc1)C(=O)N1C[C@H](O)C[C@H]1C(=O)NCc1ccc(-c2nnn[nH]2)cc1 [Example 518]
< 50 | 26 to 50 |  | COC(=O)[C@@H]1C[C@@H](O)CN1C(=O)[C@@H](NC(=O)COCCCCCOc1ccc(C(=O)N[C@H]2C(C)(C)[C@H](Oc3ccc(C#N)c(Cl)c3)C2(C)C)cc1)C(C)(C)C [Example 519]
> 501 | 26 to 50 |  | CC(C)[C@H](NC(=O)COCCCCCNc1ccc(C(=O)N[C@H]2C(C)(C)[C@H](Oc3ccc(C#N)c(Cl)c3)C2(C)C)cc1)C(=O)N1C[C@H](O)C[C@H]1C(=O)NCc1ccc(C#N)cc1 [Example 520]
< 50 | 51 to 70 |  | CC(C)(C)[C@H](NC(=O)COCCCCCNc1ccc(C(=O)N[C@H]2C(C)(C)[C@H](Oc3ccc(C#N)c(Cl)c3)C2(C)C)cc1)C(=O)N1C[C@H](O)C[C@H]1C(=O)NCc1ccc(-c2scnc2C#N)cc1 [Example 521]
< 50 | 51 to 70 |  | COc1ccc(CNC(=O)[C@@H]2C[C@@H](O)CN2C(=O)[C@@H](NC(=O)COCCCCCNc2ccc(C(=O)N[C@H]3C(C)(C)[C@H](Oc4ccc(C#N)c(Cl)c4)C3(C)C)cc2)C(C)(C)C)cc1 [Example 522]
< 50 | 51 to 70 |  | CC(C)(C)[C@H](NC(=O)COCCCCCNc1ccc(C(=O)N[C@H]2C(C)(C)[C@H](Oc3ccc(C#N)c(Cl)c3)C2(C)C)cc1)C(=O)N1C[C@H](O)C[C@H]1C(=O)NCc1ccc(C#N)nc1 [Example 523]
< 50 | 51 to 70 |  | CC(C)(C)[C@H](NC(=O)COCCNc1ccc(-c2ccc(C(=O)N[C@H]3C(C)(C)[C@H](Oc4ccc(C#N)c(Cl)c4)C3(C)C)cc2)cc1)C(=O)N1C[C@H](O)C[C@H]1C(=O)NCc1ccc(C#N)cc1 [Example 524]
> 501 | 51 to 70 |  | Cc1ncsc1-c1ccc(CNC(=O)[C@@H]2C[C@@H](O)CN2C(=O)[C@@H](NC(=O)COCCN2CCC(c3ccc(C(=O)N[C@H]4C(C)(C)[C@H](Oc5ccc(C#N)c(Cl)c5)C4(C)C)cc3)CC2)C(C)(C)C)cc1 [Example 525]
< 50 | 51 to 70 |  | CC(C)(C)[C@H](NC(=O)COCCCCCNc1ccc(C(=O)N[C@H]2C(C)(C)[C@H](Oc3ccc(C#N)c(Cl)c3)C2(C)C)cc1)C(=O)N1C[C@H](O)C[C@H]1C(=O)NCc1ccc(-n2ccnn2)cc1 [Example 526]
< 50 | 26 to 50 |  | CC(C)(C)[C@H](NC(=O)COCCCCCNc1ccc(C(=O)N[C@H]2C(C)(C)[C@H](Oc3ccc(C#N)c(Cl)c3)C2(C)C)cc1)C(=O)N1C[C@H](O)C[C@H]1C(=O)NCc1ccc(-n2nccn2)cc1 [Example 527]
< 50 | 51 to 70 |  | CC(C)(C)[C@H](NC(=O)COCCCCCNc1ccc(C(=O)N[C@H]2C(C)(C)[C@H](Oc3ccc(C#N)c(Cl)c3)C2(C)C)cc1)C(=O)N1C[C@H](O)C[C@H]1C(=O)NCc1ccc(-c2nnc[nH]2)cc1 [Example 528]
< 50 | < 25 |  | CC(C)(C)[C@H](NC(=O)COCCCCCNc1ccc(C(=O)N[C@H]2C(C)(C)[C@H](Oc3ccc(C#N)c(Cl)c3)C2(C)C)cc1)C(=O)N1C[C@H](O)C[C@H]1C(=O)NCc1ccc(-n2ccccc2=O)cc1 [Example 529]
< 50 | > 71 |  | CC(C)(C)[C@H](NC(=O)COCCCCCNc1ccc(C(=O)N[C@H]2C(C)(C)[C@H](Oc3ccc(C#N)c(Cl)c3)C2(C)C)cc1)C(=O)N1C[C@H](O)C[C@H]1C(=O)NCc1ccc(-n2cncn2)cc1 [Example 530]
< 50 | 26 to 50 |  | CC(C)(C)[C@H](NC(=O)COCCCCCNc1ccc(C(=O)N[C@H]2C(C)(C)[C@H](Oc3ccc(C#N)c(Cl)c3)C2(C)C)cc1)C(=O)N1C[C@H](O)C[C@H]1C(=O)NCc1ccc(-c2cccnn2)cc1 [Example 531]
< 50 | 51 to 70 |  | CC(C)(C)[C@H](NC(=O)COCCCCCNc1ccc(C(=O)N[C@H]2C(C)(C)[C@H](Oc3ccc(C#N)c(Cl)c3)C2(C)C)cc1)C(=O)N1C[C@H](O)C[C@H]1C(=O)NCc1ccc(-c2cnccn2)cc1 [Example 532]
< 50 | 26 to 50 |  | CC(C)(C)[C@H](NC(=O)COCCCCCNc1ccc(C(=O)N[C@H]2C(C)(C)[C@H](Oc3ccc(C#N)c(Cl)c3)C2(C)C)cc1)C(=O)N1C[C@H](O)C[C@H]1C(=O)NCc1ccc(-c2ccncn2)cc1 [Example 533]
< 50 | 51 to 70 |  | CC(C)(C)[C@H](NC(=O)COCCCCCNc1ccc(C(=O)N[C@H]2C(C)(C)[C@H](Oc3ccc(C#N)c(Cl)c3)C2(C)C)cc1)C(=O)N1C[C@H](O)C[C@H]1C(=O)NCc1ccc(-c2cncnc2)cc1 [Example 534]
< 50 | 26 to 50 |  | CC(C)(C)[C@H](NC(=O)COCCCCCNc1ccc(C(=O)N[C@H]2C(C)(C)[C@H](Oc3ccc(C#N)c(Cl)c3)C2(C)C)cc1)C(=O)N1C[C@H](O)C[C@H]1C(=O)NCc1ccc(-c2ncccn2)cc1 [Example 535]
